Among the data in EP4653437A2 (Innovo Therapeutics Inc., priority 2023, dated 2024) are IC50 values, retold here.

Bounds are passed on as bounds.

For orientation: IC50 means the midpoint of a concentration-inhibition curve.

This experiment addresses T1, human 15-PGDH (Homo sapiens, UniProt P15428).
T1 construct: purchased R&D System 5660-DH
T1 sequence (P15428 1-266): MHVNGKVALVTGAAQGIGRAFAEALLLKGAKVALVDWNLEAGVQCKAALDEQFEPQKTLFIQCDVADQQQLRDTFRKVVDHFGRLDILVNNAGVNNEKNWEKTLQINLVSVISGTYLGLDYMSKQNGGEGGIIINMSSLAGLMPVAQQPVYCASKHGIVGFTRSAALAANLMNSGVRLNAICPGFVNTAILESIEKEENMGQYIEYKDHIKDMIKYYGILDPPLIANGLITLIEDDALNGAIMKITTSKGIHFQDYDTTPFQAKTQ
The experiment can be described thus: Evaluation of 15-PGDH inhibitory activity (fluorescence enzyme assay, NAD+/PGE2). Type of experiment: biochemical. The following applies: human 15-PGDH enzyme, fluorescence Vmax. The procedure: 15-PGDH inhibition activity of Example compounds was measured as follows. 6.7 ng of human 15-PGDH (R&D System# 5660-DH) enzyme (10 µL) was added to a black 96 well plate, 60 µL of buffer (50 mM Tris-HCl, pH 7.5, 0.01% Tween 20) was added, and 10 µL of 200 µM β-Nicotinamide adenine dinucleotide sodium salt (Sigma, Cat# N0632-5G) was added. 10 µL of (10x) compound solution in DMSO was added and reacted for 10 minutes at room temperature.
In turn, `O=C(c1cc2nc(-c3ccc4c(c3)OCCO4)ccc2[nH]1)N1CCCCC1` [Example 178, (5-(2,3-dihydrobenzo[b][1,4]dioxin-6-yl)-1H-pyrrolo[3,2-b]pyridin-2-yl)(piperidin-1-yl)methanone] yielded an IC50 of 100 to 1000 nM.

For `O=C(c1cc2nc(N3Cc4ccccc4C3=O)ccc2[nH]1)N1CCCCC1` [Example 191, 2-(2-(piperidine-1-carbonyl)-1H-pyrrolo[3,2-b]pyridin-5-yl)isoindolin-1-one], the IC50 is 100 to 1000 nM.

As for `O=C(c1cc2c(-c3ccc4c(c3)OCO4)ncnc2[nH]1)N1CCCCC1` [Example 177, (4-(benzo[d][1,3]dioxol-5-yl)-7H-pyrrolo[2,3-d]pyrimidin-6-yl)(piperidin-1-yl)methanone], the IC50 is more than 1000 nM.

Compound `O=C(Nc1cccnc1)c1ccc(-c2cccc3c(C(=O)N4CCCCC4)cnn23)cc1` [Example 71, 4-(3-(piperidine-1-carbonyl)pyrazolo[1,5-a]pyridin-7-yl)-N-(pyridin-3-yl)benzamide] had an IC50 not above 100 nM.

In turn, `O=C(c1cc2nc(-c3ccc4c(c3)OCO4)ccc2[nH]1)N1CCCCC1` [Example 173, (5-(benzo[d][1,3]dioxol-5-yl)-1H-pyrrolo[3,2-b]pyridin-2-yl)(piperidin-1-yl)methanone] registered an IC50 not above 100 nM.

Take `O=C(c1cnn2c(-c3ccc4ccccc4c3)cccc12)N1CCCCC1` [Example 129, (7-(naphthalen-2-yl)pyrazolo[1,5-a]pyridin-3-yl)(piperidin-1-yl)methanone]: the IC50 is not above 100 nM.

As to `O=C(c1cnn2c(-c3ccc4c(c3)OCO4)cccc12)N1CCCCC1` [Example 121, (7-(benzo[d][1,3]dioxol-5-yl)pyrazolo[1,5-a]pyridin-3-yl)(piperidin-1-yl)methanone], the IC50 is not above 100 nM.

As for `O=C(c1c[nH]c2c(-c3cccc(Cl)c3)cccc12)N1CCCCC1` [Example 169, (7-(3-chlorophenyl)-1H-indol-3-yl)(piperidin-1-yl)methanone], the IC50 was not above 100 nM.

Take `O=C(c1cc2c(-c3ccc4c(c3)OCO4)ncnn2c1)N1CCCCC1` [Example 176, (4-(benzo[d][1,3]dioxol-5-yl)pyrrolo[2,1-f][1,2,4]triazin-6-yl)(piperidin-1-yl)methanone]: the IC50 was more than 1000 nM.

With `O=C(c1cc2c(-c3ccc4c(c3)OCO4)nccc2[nH]1)N1CCCCC1` [Example 174, (4-(benzo[d][1,3]dioxol-5-yl)-1H-pyrrolo[3,2-c]pyridin-2-yl)(piperidin-1-yl)methanone], the IC50 was more than 1000 nM.

`COc1ccc(-c2cccc3c(C(=O)N4CCCCC4)nnn23)cc1` [Example 168, (7-(4-methoxyphenyl)-[1,2,3]triazolo[1,5-a]pyridin-3-yl)(piperidin-1-yl)methanone] registered an IC50 of 100 to 1000 nM.

Turning to `O=C(c1cnn2c(-c3cccc([N+](=O)[O-])c3)cccc12)N1CCCCC1` [Example 5, (7-(3-nitrophenyl)pyrazolo[1,5-a]pyridin-3-yl)(piperidin-1-yl)methanone], the IC50 is not above 100 nM.

`O=C(c1cnn2c(-c3ccc4[nH]c(=O)ccc4c3)cccc12)N1CCCCC1` [Example 145, 6-(3-(piperidine-1-carbonyl)pyrazolo[1,5-a]pyridin-7-yl)quinolin-2(1H)-one] registered an IC50 not above 100 nM.

`CN1Cc2cc(-c3cccc4c(C(=O)N5CCCCC5)cnn34)ccc2C1=O` [Example 144, 2-methyl-5-(3-(piperidine-1-carbonyl)pyrazolo[1,5-a]pyridin-7-yl)isoindolin-1-one] displayed an IC50 not above 100 nM.

Compound `O=C(c1cc2nc(-c3ccc4cn[nH]c4c3)ccc2[nH]1)N1CCCCC1` [Example 190, (5-(1H-indazol-6-yl)-1H-pyrrolo[3,2-b]pyridin-2-yl)(piperidin-1-yl)methanone] registered an IC50 not above 100 nM.

Take `O=C(c1cnc2c(-c3ccc([N+](=O)[O-])cc3)cccn12)N1CCCCC1` [Example 163, (8-(4-nitrophenyl)imidazo[1,2-a]pyridin-3-yl)(piperidin-1-yl)methanone]: the IC50 is not above 100 nM.

`O=C(c1cc2nc(-c3ccoc3)ccc2[nH]1)N1CCCCC1` [Example 183, (5-(furan-3-yl)-1H-pyrrolo[3,2-b]pyridin-2-yl)(piperidin-1-yl)methanone] gave an IC50 of more than 1000 nM.

For `Cn1nccc1-c1cccc2c(C(=O)N3CCCCC3)cnn12` [Example 25, (7-(1-methyl-1H-pyrazol-5-yl)pyrazolo[1,5-a]pyridin-3-yl)(piperidin-1-yl)methanone], the IC50 is not above 100 nM.

`O=C(c1cnn2c(-c3ccccc3)cccc12)C1CCCCC1` [Example 158, cyclohexyl(7-phenylpyrazolo[1,5-a]pyridin-3-yl)methanone]: the IC50 was in the range of 100 to 1000 nM.

The compound `O=C(c1cnn2c(-c3coc4ccccc34)cccc12)N1CCCCC1` [Example 122, (7-(benzofuran-3-yl)pyrazolo[1,5-a]pyridin-3-yl)(piperidin-1-yl)methanone] registered an IC50 not above 100 nM.

In turn, `Cc1cc(-c2cccc(Cl)c2)c2ncc(C(=O)N3CCCCC3)n2c1` [Example 165, (8-(3-chlorophenyl)-6-methylimidazo[1,2-a]pyridin-3-yl)(piperidin-1-yl)methanone] displayed an IC50 of 100 to 1000 nM.

In turn, `COc1cccc(-c2cccc3c(C(=O)N4CCCCC4)cnn23)c1` [Example 4, (7-(3-methoxyphenyl)pyrazolo[1,5-a]pyridin-3-yl)(piperidin-1-yl)methanone] yielded an IC50 not above 100 nM.

Compound `O=C(c1cc2nc(-c3ccc(F)cc3)ccc2[nH]1)N1CCCCC1` [Example 182, (5-(4-fluorophenyl)-1H-pyrrolo[3,2-b]pyridin-2-yl)(piperidin-1-yl)methanone] registered an IC50 of 100 to 1000 nM.

As to `Cn1ccc2ccc(-c3cccc4c(C(=O)N5CCCCC5)cnn34)cc2c1=O` [Example 135, 2-methyl-7-(3-(piperidine-1-carbonyl)pyrazolo[1,5-a]pyridin-7-yl)isoquinolin-1(2H)-one], the IC50 was not above 100 nM.

Take `O=C(c1cnn2c(-c3cccc4ccccc34)cccc12)N1CCCCC1` [Example 128, (7-(naphthalen-1-yl)pyrazolo[1,5-a]pyridin-3-yl)(piperidin-1-yl)methanone]: the IC50 was not above 100 nM.

Compound `CC(C)(C)OC(=O)N1CCN(C(=O)c2cccc(-c3cccc4c(C(=O)N5CCCCC5)cnn34)c2)CC1` [Example 35, tert-butyl 4-(3-(3-(piperidine-1-carbonyl)pyrazolo[1,5-a]pyridin-7-yl)benzoyl)piperazine-1-carboxylate] registered an IC50 not above 100 nM.

The compound `Cc1nn(C)c(C)c1S(=O)(=O)Nc1cccc2c(C(=O)N3CCCCC3)cnn12` [Example 240, 1,3,5-trimethyl-N-[3-(piperidine-1-carbonyl)pyrazolo[1,5-a]pyridin-7-yl]pyrazole-4-sulfonamide] returned an IC50 of more than 1000 nM.

With `O=C(c1cnc2c(-c3cccc(Cl)c3)cc(F)cn12)N1CCCCC1` [Example 167, (8-(3-chlorophenyl)-6-fluoroimidazo[1,2-a]pyridin-3-yl)(piperidin-1-yl)methanone], the IC50 was not above 100 nM.

`O=C(c1cc2nc(-c3ccc4ccccc4c3)ccc2[nH]1)N1CCCCC1` [Example 189, (5-(naphthalen-2-yl)-1H-pyrrolo[3,2-b]pyridin-2-yl)(piperidin-1-yl)methanone] returned an IC50 of more than 1000 nM.

For the compound `O=C(c1cnn2c(-c3cccc(Cl)c3)cccc12)N1CCCCC1` [Example 2, (7-(3-chlorophenyl)pyrazolo[1,5-a]pyridin-3-yl)(piperidin-1-yl)methanone], the IC50 was not above 100 nM.

`CC(=O)c1cnn2c(-c3ccc(C#N)cc3)cccc12` [Example 152, 4-(3-acetylpyrazolo[1,5-a]pyridin-7-yl)benzonitrile] had an IC50 of 100 to 1000 nM.

As for `O=C(c1cnc2c(-c3cccc(Cl)c3)cccn12)N1CCCCC1` [Example 162, (8-(3-chlorophenyl)imidazo[1,2-a]pyridin-3-yl)(piperidin-1-yl)methanone], the half-inhibitory concentration (IC50) is not above 100 nM.

Take `Cc1cc(-c2ccnc(Cl)c2)c2ncc(C(=O)N3CCCCC3)n2c1` [Example 166, (8-(2-chloropyridin-4-yl)-6-methylimidazo[1,2-a]pyridin-3-yl)(piperidin-1-yl)methanone]: the IC50 was in the range of 100 to 1000 nM.

`O=C(c1cc2nc(-c3ccc(O)c(Cl)c3)ccc2[nH]1)N1CCCCC1` [Example 186, (5-(3-chloro-4-hydroxyphenyl)-1H-pyrrolo[3,2-b]pyridin-2-yl)(piperidin-1-yl)methanone] showed an IC50 of 100 to 1000 nM.

Consider `O=C(c1cnn2c(-c3ccccc3)cccc12)N1CCCCC1` [Example 1], for which the IC50 is not above 100 nM.

For the compound `O=C(c1cnn2c(-c3ccc([N+](=O)[O-])cc3)cccc12)N1CCCCC1` [Example 13, (7-(4-nitrophenyl)pyrazolo[1,5-a]pyridin-3-yl)(piperidin-1-yl)methanone], the IC50 was not above 100 nM.

The compound `Cn1ccc2cc(-c3cccc4c(C(=O)N5CCCCC5)cnn34)ccc2c1=O` [Example 139, 2-methyl-6-(3-(piperidine-1-carbonyl)pyrazolo[1,5-a]pyridin-7-yl)isoquinolin-1(2H)-one] came in with an IC50 not above 100 nM.

The compound `O=C(c1cnn2c(-c3ccc(C(F)(F)F)nc3Cl)cccc12)N1CCCCC1` [Example 272, (7-(2-chloro-6-(trifluoromethyl)pyridin-3-yl)pyrazolo[1,5-a]pyridin-3-yl)(piperidin-1-yl)methanone] displayed an IC50 not above 100 nM.
